# Measured values as given in ChEMBL document CHEMBL1150548, “Dopamine autoreceptor agonists: computational studies, synthesis and biological investigations” (Bioorg Med Chem Lett, 1993).
# Assays:
# D(2) dopamine receptor [1] = target: T1, D(2) dopamine receptor (Rattus norvegicus, UniProt P61169); test: Compound was evaluated for binding affinity to Dopamine receptor D2 labeled with [3H]spiroperidol (0.5 nM) in rat striatal membranes; assay type: cell membranes, Striatum, Membrane
# D(1A) dopamine receptor = D(1A) dopamine receptor (Rattus norvegicus, UniProt P18901); test: Compound was evaluated for binding affinity to Dopamine receptor D1 labeled with [3H]-SCH- 23390 (0.3 nM) in rat striatal membranes; assay type: cell membranes, Striatum, Membrane
# Chain of D(1A) dopamine receptor (P18901 whole entry): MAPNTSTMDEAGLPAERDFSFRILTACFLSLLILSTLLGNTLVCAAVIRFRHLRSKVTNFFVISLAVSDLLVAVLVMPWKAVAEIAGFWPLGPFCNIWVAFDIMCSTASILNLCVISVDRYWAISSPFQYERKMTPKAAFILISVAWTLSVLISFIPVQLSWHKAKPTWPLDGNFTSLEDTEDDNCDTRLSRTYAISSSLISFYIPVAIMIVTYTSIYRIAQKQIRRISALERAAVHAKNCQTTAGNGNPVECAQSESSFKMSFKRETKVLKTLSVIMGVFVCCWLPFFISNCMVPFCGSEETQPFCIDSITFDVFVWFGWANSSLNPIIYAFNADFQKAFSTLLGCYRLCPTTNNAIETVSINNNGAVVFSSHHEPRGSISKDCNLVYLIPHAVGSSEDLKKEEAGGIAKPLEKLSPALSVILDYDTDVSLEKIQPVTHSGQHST
# Mus musculus [2] = test: Compound was evaluated for agonistic activity (DA receptor) by inhibition of GBL (gamma-butyralactone)-induced L-Dopa accumulation at a dose 10 mg/kg; assay type: functional
# D(2) dopamine receptor [3] = target: T1, D(2) dopamine receptor; test: Compound was evaluated for binding affinity to Dopamine receptor D2 labeled with [3H]-SND 919 (0.5 nM) in rat striatal membranes; assay type: cell membranes, Striatum, Membrane
# Mus musculus [4] = test: Compound was evaluated for agonistic activity (DA receptor) by inhibition of GBL (gamma-butyralactone)-induced L-Dopa accumulation at a dose of 10 mg/Kg; assay type: functional
# T1 sequence (P61169 whole entry): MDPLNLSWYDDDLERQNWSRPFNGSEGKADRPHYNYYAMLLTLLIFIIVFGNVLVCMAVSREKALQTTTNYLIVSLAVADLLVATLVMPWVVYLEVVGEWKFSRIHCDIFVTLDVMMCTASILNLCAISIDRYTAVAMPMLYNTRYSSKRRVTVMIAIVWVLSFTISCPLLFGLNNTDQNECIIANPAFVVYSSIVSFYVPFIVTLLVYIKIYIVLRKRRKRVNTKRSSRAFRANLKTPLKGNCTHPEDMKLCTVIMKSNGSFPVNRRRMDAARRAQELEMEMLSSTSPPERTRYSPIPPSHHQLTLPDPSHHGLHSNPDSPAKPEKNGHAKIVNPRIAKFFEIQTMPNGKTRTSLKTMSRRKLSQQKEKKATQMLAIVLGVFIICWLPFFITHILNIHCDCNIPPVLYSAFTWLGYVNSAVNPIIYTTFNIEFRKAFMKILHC
Compound,IC50 (D(2) dopamine receptor [1]) [µM],IC50 (D(1A) dopamine receptor) [µM],inhibition in vivo at 10 mg/kg (Mus musculus [2]) [%],IC50 (D(2) dopamine receptor [3]) [µM],inhibition in vivo at 10 mg/kg (Mus musculus [4]) [%]
CCCN(CCC)[C@H]1CCn2cccc2C1,7.1,14.5,62,0.03,–
CCCNC1Cc2cccn3ncc(c23)C1 (centres undefined),> 100,> 100,–,2.7,–
CCCN(CCC)C1Cc2cccn3ncc(c23)C1 (centres undefined),50.4,> 100,–,0.26,57
NC1Cc2cccn3ncc(c23)C1 (centres undefined),> 100,> 100,–,2.8,–
